Test results from ChEMBL document CHEMBL3352157, “1,2,4-triazolo[1,5-a]quinoxaline derivatives and their simplified analogues as adenosine A₃ receptor antagonists. Synthesis, structure-affinity relationships and molecular modeling studies” (Bioorg Med Chem, 2015).
Calls of active or inactive are those of the source. The rule behind the calls is not given here.

Experiments:
Adenosine receptor A2a [1] = target: T1, Adenosine receptor A2a (Homo sapiens, UniProt P29274); experiment: Displacement of [3H]NECA from human adenosine A2A receptor expressed in CHO cells at 10 uM; type: cell-based
T1 sequence (P29274 whole entry): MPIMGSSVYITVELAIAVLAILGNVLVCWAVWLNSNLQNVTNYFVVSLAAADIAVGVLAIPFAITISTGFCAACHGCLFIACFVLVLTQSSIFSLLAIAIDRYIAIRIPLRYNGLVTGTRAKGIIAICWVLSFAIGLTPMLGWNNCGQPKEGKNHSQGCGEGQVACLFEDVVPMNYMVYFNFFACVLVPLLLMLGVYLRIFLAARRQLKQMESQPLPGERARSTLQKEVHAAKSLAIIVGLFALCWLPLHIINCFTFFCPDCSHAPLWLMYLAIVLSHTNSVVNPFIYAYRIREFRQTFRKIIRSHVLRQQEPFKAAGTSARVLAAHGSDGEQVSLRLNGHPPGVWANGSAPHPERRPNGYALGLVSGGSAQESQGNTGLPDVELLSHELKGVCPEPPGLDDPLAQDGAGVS

Adenosine receptor A3 = target: T2, Adenosine receptor A3 (Homo sapiens, UniProt P0DMS8); experiment: Displacement of [125I]AB-MECA from human adenosine A3 receptor expressed in CHO cells; type: cell-based
T2 sequence (P0DMS8 whole entry): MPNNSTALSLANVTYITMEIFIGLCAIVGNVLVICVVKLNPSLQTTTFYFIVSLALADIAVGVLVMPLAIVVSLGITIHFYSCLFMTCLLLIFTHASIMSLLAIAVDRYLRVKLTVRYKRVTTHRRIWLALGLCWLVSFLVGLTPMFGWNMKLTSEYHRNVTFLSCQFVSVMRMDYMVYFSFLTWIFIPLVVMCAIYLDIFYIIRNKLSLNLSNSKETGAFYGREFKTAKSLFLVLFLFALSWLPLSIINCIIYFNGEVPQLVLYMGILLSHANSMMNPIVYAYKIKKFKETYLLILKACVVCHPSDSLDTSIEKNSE

[2] = target: T3, Adenosine receptor A1 (Homo sapiens) (UniProt P30542); experiment: Displacement of [3H]DPCPX from human adenosine A1 receptor expressed in CHO cells at 10 uM; type: cell-based
T3 sequence (whole entry): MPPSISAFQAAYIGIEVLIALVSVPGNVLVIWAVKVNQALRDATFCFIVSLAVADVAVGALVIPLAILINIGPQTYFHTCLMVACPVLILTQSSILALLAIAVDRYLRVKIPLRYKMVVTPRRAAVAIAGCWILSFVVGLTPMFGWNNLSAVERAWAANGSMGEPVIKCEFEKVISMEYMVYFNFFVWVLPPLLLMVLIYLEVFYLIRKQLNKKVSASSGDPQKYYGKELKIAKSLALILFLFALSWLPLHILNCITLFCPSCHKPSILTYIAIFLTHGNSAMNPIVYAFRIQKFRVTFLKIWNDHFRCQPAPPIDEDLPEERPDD

Adenosine receptor A2a [3] = target: T1, Adenosine receptor A2a; experiment: Displacement of [3H]NECA from human adenosine A2A receptor expressed in CHO cells; type: cell-based
Adenosine receptor A1 = target: T4, Adenosine receptor A1 (Homo sapiens, UniProt P30542); experiment: Displacement of [3H]DPCPX from human adenosine A1 receptor expressed in CHO cells; type: cell-based
T4 sequence (P30542 whole entry): T3 sequence (whole entry)

[4] = target: T5, Adenosine receptor A2b (Homo sapiens) (UniProt P29275); experiment: Antagonist activity at human recombinant adenosine A2B receptor expressed in CHO cells assessed as inhibition of NECA-induced cAMP accumulation measured as cAMP level at 10 uM incubated for 15 mins prior to NECA challenge measured after 30 mins by liquid scintillation counting analysis relative to control; type: functional, cell-based; set-up: scale not given: the % may be the effect or the level left
T5 sequence (whole entry): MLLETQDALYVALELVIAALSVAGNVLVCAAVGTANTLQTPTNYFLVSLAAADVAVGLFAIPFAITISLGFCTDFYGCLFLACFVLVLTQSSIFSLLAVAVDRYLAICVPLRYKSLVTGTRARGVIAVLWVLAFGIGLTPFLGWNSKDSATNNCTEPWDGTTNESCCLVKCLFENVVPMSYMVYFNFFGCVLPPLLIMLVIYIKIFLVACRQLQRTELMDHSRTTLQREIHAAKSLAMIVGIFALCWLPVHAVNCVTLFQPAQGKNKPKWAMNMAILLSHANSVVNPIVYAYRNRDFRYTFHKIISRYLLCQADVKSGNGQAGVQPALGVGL

[5] = target: T5, Adenosine receptor A2b (Homo sapiens); experiment: Agonist activity at human recombinant adenosine A2B receptor expressed in CHO cells assessed as cAMP accumulation at 10 uM after 15 mins by liquid scintillation counting analysis; type: functional, cell-based
[6] = target: T6, Adenosine receptor A3 (Homo sapiens) (UniProt P0DMS8); experiment: Displacement of [125I]AB-MECA from human adenosine A3 receptor expressed in CHO cells at 1 uM; type: cell-based
T6 sequence (whole entry): T2 sequence (P0DMS8 whole entry)

Row | SMILES | inhibition (Adenosine receptor A2a [1]) [%] | Ki (Adenosine receptor A3) [nM] | inhibition [2] [%] | Ki (Adenosine receptor A2a [3]) [nM] | Ki (Adenosine receptor A1) [nM] | Activity [4] [%] | Activity [5] | inhibition [6] [%]
1 | COc1ccc(-c2nc3n(n2)-c2cc(C)ccc2N(C(=O)OCc2ccccc2)C3)cc1 | 4 | 231 | 45 |  |  |  |  | 
2 | Cc1ccc2ncc3nc(-c4ccccc4)nn3c2c1 |  | 23.9 |  | 2400 | 1320 |  |  | 
3 | C#CCOC(=O)N1Cc2nc(-c3ccc(OC)cc3)nn2-c2cc(C)ccc21 | 13 | 23.3 | 49 |  |  | 109 | inactive | 
4 | COc1ccc(-c2nc(N(C(C)=O)C(C)=O)n(-c3ccccc3)n2)cc1 | 4 |  | 26 |  |  |  |  | 19
5 | COc1ccc(-c2ncn(-c3cc(C)ccc3NC(=O)OCc3ccccc3)n2)cc1 | 7 |  | 2 |  |  |  |  | 47
6 | COc1ccc(-c2nc(NC(=O)Nc3ccccc3)n(-c3ccccc3)n2)cc1 | 7 | 545 | 1 |  |  |  |  | 
7 | CCC(=O)N1Cc2nc(-c3ccc(OC)cc3)nn2-c2cc(C)ccc21 | 6 | 25.1 |  |  | 1540 | 102 | inactive | 
8 | CCOC(=O)N1Cc2nc(-c3ccccc3)nn2-c2cc(C)ccc21 | 9 | 12.5 |  |  | 556 | 104 | inactive | 
9 | CCC(=O)N1Cc2nc(-c3ccccc3)nn2-c2ccccc21 | 52 |  |  |  | 1360 |  |  | 55
10 | CCOC(=O)N1Cc2nc(-c3ccccc3)nn2-c2cc(Cl)ccc21 |  | 166 |  |  |  |  |  | 
11 | Clc1ccc2ncc3nc(-c4ccccc4)nn3c2c1 | 19 | 15.2 |  |  | 127 |  |  | 
12 | CCOC(=O)Nc1ccc(C)cc1-n1cnc(-c2ccc(OC)cc2)n1 | 13 |  | 6 |  |  |  |  | 34
13 | COC(=O)N1Cc2nc(-c3ccccc3)nn2-c2ccccc21 | 50 | 245 | 34 |  |  |  |  | 
14 | CCOC(=O)N1Cc2nc(-c3ccccc3)nn2-c2ccccc21 | 33 |  |  |  | 4600 |  |  | 22
15 | COC(=O)N1Cc2nc(-c3ccccc3)nn2-c2cc(C)ccc21 | 32 | 31.9 |  |  | 1480 | 74.9 | inactive | 

Further lines, results first:

Row | inhibition (Adenosine receptor A2a [1]) [%] | Ki (Adenosine receptor A3) [nM] | inhibition [2] [%] | Ki (Adenosine receptor A2a [3]) [nM] | Ki (Adenosine receptor A1) [nM] | Activity [4] [%] | Activity [5] | inhibition [6] [%] | SMILES
16 | 43 |  | 25 |  |  |  |  | 50 | COc1ccc(-c2nc(NC(=O)c3ccccc3)n(-c3ccccc3)n2)cc1
17 | 13 |  | 55 |  |  |  |  | 44 | COc1ccc(-c2nc(N(C(=O)c3ccccc3)C(=O)c3ccccc3)n(-c3ccccc3)n2)cc1
18 | 16 |  |  |  |  |  |  | 35 | C#CCOC(=O)Nc1ccc(C)cc1-n1cnc(-c2ccc(OC)cc2)n1
19 | 30 | 26.6 |  |  | 2020 | 42.6 | inactive |  | COc1ccc(-c2nc3cnc4ccc(C)cc4n3n2)cc1
20 | 33 | 6.5 |  |  | 134 | 68.6 | inactive |  | CCC(=O)N1Cc2nc(-c3ccccc3)nn2-c2cc(C)ccc21
21 | 24 | 72 | 39 |  |  | 63.7 | inactive |  | CCC(=O)N1Cc2nc(-c3ccccc3)nn2-c2cc(Cl)ccc21
22 | 0 | 54.8 | 39 |  |  | 89.5 | inactive |  | COc1ccc(-c2nc3n(n2)-c2cc(C)ccc2N(C(=O)Cc2ccccc2)C3)cc1
23 | 2 | 39.4 |  |  | 86 |  |  |  | CCOC(=O)N1Cc2nc(-c3ccc(OC)cc3)nn2-c2cc(C)ccc21
24 |  | 91.5 |  |  |  |  |  |  | c1ccc(-c2nc3cnc4ccccc4n3n2)cc1
25 | 1 |  | 44 |  |  |  |  | 45 | COc1ccc(-c2ncn(-c3cc(C)ccc3NC(=O)Cc3ccccc3)n2)cc1
26 | 56 | 171 |  |  | 565 |  |  |  | CCCOC(=O)N1Cc2nc(-c3ccccc3)nn2-c2cc(C)ccc21
